How the values were obtained:
Assay type in all cases: in vivo
Details in all cases: 320 g/ha, 3 weeks after application
[1] = test system: Setaria viridis; experiment: Test Example 5: herbicidal effect by foliage application, plastic box (symbol G)
Procedure, shortened: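 Post-emergence spray; diluvial soil (sterilized), ~1.5 cm seed cover; greenhouse 25–30° C; 14-day-old plants; water-diluted emulsion at predetermined dose; visual score at 3 wk post-treatment.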

[2] = test system: beet; experiment: Test Example 5: effect on crop by foliage application, plastic box (symbol f)
Procedure, shortened: (§1)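 A greenhouse held between 25° C. and 30° C. was used to grow plants sown spot-wise, beneath ~1.5 cm of soil, in boxes of sterilized diluvial soil.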

[3] = test system: wheat; experiment: Test Example 5: effect on crop by foliage application, plastic box (symbol e)
Procedure, shortened: as §1

[4] = test system: rapeseed; experiment: Test Example 5: effect on crop by foliage application, plastic box (symbol g)
Procedure, shortened: as §1

Row | Compound | G: Setaria viridis, herbicidal effect (criteria 0-5) [1] | f: beet, effect on crop (criteria 0-5) [2] | e: wheat, effect on crop (criteria 0-5) [3] | g: rapeseed, effect on crop (criteria 0-5) [4] | G: Setaria viridis, herbicidal effect grade [1] | f: beet, effect on crop grade [2] | e: wheat, effect on crop grade [3] | g: rapeseed, effect on crop grade [4]
1 | CCC(Oc1ccc2ncc(Br)cc2c1)C(=O)OC1=C(c2c(C)cc(C)cc2C)C(=O)C(CC(C)=NOC)C1 (stereo not drawn) [1-140] | 5 (Herbicidal ratio of 90% or more (almost completely withered)) | 3 (Herbicidal ratio of 40% or higher and lower than 70%) | 5 (Herbicidal ratio of 90% or more (almost completely withered)) | 5 (Herbicidal ratio of 90% or more (almost completely withered)) | – | – | – | –
2 | CON=C(C)CC1CC(OC(=O)CN(C)C(=O)c2ccccc2)=C(c2c(C)cc(C)cc2C)C1=O (stereo not drawn) [1-139] | 5 (Herbicidal ratio of 90% or more (almost completely withered)) | 0 (Herbicidal ratio of 5% or lower (almost no effect)) | 5 (Herbicidal ratio of 90% or more (almost completely withered)) | 4 (Herbicidal ratio of 70% or higher and lower than 90%) | – | – | – | –
3 | CC#Cc1cc(C)c(C2=C(O)CC(CC(=NOCCOC)C(C)C)C2=O)c(C)c1 (stereo not drawn) [9-023] | – | – | – | – | 5 (Herbicidal ratio of 90% or more (almost completely withered)) | 0 (Herbicidal ratio of 5% or lower (almost no effect)) | 1 (Herbicidal ratio of 5% or higher and lower than 20%) | 5 (Herbicidal ratio of 90% or more (almost completely withered))
4 | CON=C(C)CC1CC(OC(=O)N2CCOCC2)=C(c2c(C)cc(C)cc2C)C1=O (stereo not drawn) [1-104] | 5 (Herbicidal ratio of 90% or more (almost completely withered)) | 0 (Herbicidal ratio of 5% or lower (almost no effect)) | 0 (Herbicidal ratio of 5% or lower (almost no effect)) | 4 (Herbicidal ratio of 70% or higher and lower than 90%) | – | – | – | –
5 | Cc1cc(Br)cc(C)c1C1=C(O)CC(CC(=O)C(C)C)C1=O (racemic) [10-003] | – | – | – | – | 5 (Herbicidal ratio of 90% or more (almost completely withered)) | 0 (Herbicidal ratio of 5% or lower (almost no effect)) | 0 (Herbicidal ratio of 5% or lower (almost no effect)) | 0 (Herbicidal ratio of 5% or lower (almost no effect))
6 | CC(CC1CC(O)=C(c2c(C)cc(C)cc2C)C1=O)=NOCC1CC1(F)F (stereo not drawn) [1-109] | 5 (Herbicidal ratio of 90% or more (almost completely withered)) | 0 (Herbicidal ratio of 5% or lower (almost no effect)) | 5 (Herbicidal ratio of 90% or more (almost completely withered)) | 4 (Herbicidal ratio of 70% or higher and lower than 90%) | – | – | – | –
7 | COCCON=C(CC1CC(O)=C(c2c(C)cc(-n3cc(Cl)cn3)cc2C)C1=O)C1CC1 (stereo not drawn) [9-020] | – | – | – | – | 5 (Herbicidal ratio of 90% or more (almost completely withered)) | 0 (Herbicidal ratio of 5% or lower (almost no effect)) | 2 (Herbicidal ratio of 20% or higher and lower than 40%) | 4 (Herbicidal ratio of 70% or higher and lower than 90%)
8 | CON=C(C)CC1CC(OC(=O)N(C)CCCCCl)=C(c2c(C)cc(C)cc2C)C1=O (stereo not drawn) [1-126] | 4 (Herbicidal ratio of 70% or higher and lower than 90%) | 0 (Herbicidal ratio of 5% or lower (almost no effect)) | 0 (Herbicidal ratio of 5% or lower (almost no effect)) | 4 (Herbicidal ratio of 70% or higher and lower than 90%) | – | – | – | –
9 | CC#Cc1cc(C)c(C2=C(O)CC(CC(=NOCC(F)(F)F)C(C)C)C2=O)c(C)c1 (stereo not drawn) [9-015] | – | – | – | – | 5 (Herbicidal ratio of 90% or more (almost completely withered)) | 0 (Herbicidal ratio of 5% or lower (almost no effect)) | 3 (Herbicidal ratio of 40% or higher and lower than 70%) | 5 (Herbicidal ratio of 90% or more (almost completely withered))
